Laboratory results as given in patent US9409917B2, “Heterocyclic amide derivatives as P2X7 receptor antagonists” (ACTELION PHARMACEUTICALS LTD., priority 2012, dated 2016).

The molecules below were run against human recombinant P2X7 receptor (Homo sapiens (Human), UniProt Q99572) (assay: YO-PRO assay: P2X7 receptor antagonistic activity (ATP-induced YO-PRO-1 uptake, FLIPR)). Conditions: not given.
Sequence of human recombinant P2X7 receptor (Q99572 whole entry): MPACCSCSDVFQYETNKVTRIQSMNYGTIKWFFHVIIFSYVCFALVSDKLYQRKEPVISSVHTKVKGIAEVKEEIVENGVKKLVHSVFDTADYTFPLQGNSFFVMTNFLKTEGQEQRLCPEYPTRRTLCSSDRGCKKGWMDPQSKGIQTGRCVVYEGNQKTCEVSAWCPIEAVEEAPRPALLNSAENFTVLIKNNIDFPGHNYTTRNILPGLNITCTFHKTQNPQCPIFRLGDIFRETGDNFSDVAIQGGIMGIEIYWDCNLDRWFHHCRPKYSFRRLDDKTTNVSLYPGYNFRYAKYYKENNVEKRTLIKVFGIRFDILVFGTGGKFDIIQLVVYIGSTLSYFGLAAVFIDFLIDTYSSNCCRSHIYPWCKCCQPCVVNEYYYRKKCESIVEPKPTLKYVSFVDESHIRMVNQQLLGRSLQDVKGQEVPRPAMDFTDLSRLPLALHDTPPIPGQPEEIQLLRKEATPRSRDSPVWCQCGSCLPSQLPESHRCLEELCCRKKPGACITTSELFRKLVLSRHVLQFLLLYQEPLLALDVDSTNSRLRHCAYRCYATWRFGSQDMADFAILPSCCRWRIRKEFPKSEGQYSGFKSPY

Point of comparison: `O=C1CC(NC(=O)C2COc3ncccc32)c2ccccc21` (racemic) [Example 89, rac-2,3-Dihydro-furo[2,3-b]pyridine-3-carboxylic acid (3-oxo-indan-1-yl)-amide], IC50 2510 nM. Against it:
- O=C(NCc1c(Cl)cc(Cl)cc1C(F)(F)F)C1COc2ncccc21 (racemic) [Example 68, rac-2,3-Dihydro-furo[2,3-b]pyridine-3-carboxylic acid 2,4-dichloro-6-trifluoromethyl-benzylamide] — 180-fold lower, 13.8 nM
- COCc1cc(Cl)cc(Cl)c1CNC(=O)C1COc2ncccc21 (racemic) [Example 72, rac-2,3-Dihydro-furo[2,3-b]pyridine-3-carboxylic acid 2,4-dichloro-6-methoxymethyl-benzylamide] — 170-fold lower, 14.6 nM
- O=C1CC(NC(=O)C2COc3ncccc32)c2ccccc21 (racemic) [Example 88, rac-2,3-Dihydro-furo[2,3-b]pyridine-3-carboxylic acid (3-oxo-indan-1-yl)-amide] — 1.7-fold lower, 1450 nM
- O=C(NCc1c(Cl)cc(Cl)cc1COCCO)C1COc2ncccc21 (racemic) [Example 93, rac-2,3-Dihydro-furo[2,3-b]pyridine-3-carboxylic acid 2,4-dichloro-6-(2-hydroxy-ethoxymethyl)-benzylamide] — 220-fold lower, 11.4 nM
- [2H]C([2H])([2H])c1cc(Cl)cc(Cl)c1CNC(=O)C1COc2ncccc21 (racemic) [Example 96, rac-2,3-Dihydro-furo[2,3-b]pyridine-3-carboxylic acid 2,4-dichloro-6-trideuteromethyl-benzylamide] — 930-fold lower, 2.7 nM
- O=C(NCc1ccc(C(F)(F)F)cc1Cl)C1COc2ncccc21 (racemic) [Example 103, rac-2,3-Dihydro-furo[2,3-b]pyridine-3-carboxylic acid 2-chloro-4-trifluoromethyl-benzylamide] — 31-fold lower, 80.4 nM
- O=C(NCCCc1ccc(Cl)cc1Cl)C1COc2ncccc21 (racemic) [Example 106, rac-2,3-Dihydro-furo[2,3-b]pyridine-3-carboxylic acid [3-(2,4-dichloro-phenyl)-propyl]-amide] — 7.3-fold lower, 346 nM
- O=C(NCc1c(Cl)cc(Cl)cc1Cl)C1COc2ncccc21 (racemic) [Example 114, rac-2,3-Dihydro-furo[2,3-b]pyridine-3-carboxylic acid 2,4,6-trichloro-benzylamide] — 200-fold lower, 12.5 nM
- O=C(NCc1c(Cl)cccc1CO)C1COc2ncccc21 (racemic) [Example 118, rac-2,3-Dihydro-furo[2,3-b]pyridine-3-carboxylic acid 2-chloro-6-hydroxymethyl-benzylamide] — 8.3-fold lower, 304 nM
- O=C(NC(CO)C1CCCCCC1)C1COc2ncccc21 (single isomer, unassigned) [Example 13, rac-2,3-Dihydro-furo[2,3-b]pyridine-3-carboxylic acid (1-cycloheptyl-2-hydroxy-ethyl)-amide] — 3.1-fold lower, 813 nM
- O=C(NC(CO)C1CCCCCC1)C1COc2ncccc21 (single isomer, unassigned) [Example 14, rac-2,3-Dihydro-furo[2,3-b]pyridine-3-carboxylic acid (1-cycloheptyl-2-hydroxy-ethyl)-amide] — 21-fold lower, 117 nM
- Cc1ncc(C(CNC(=O)C2COc3ncccc32)N2CCC(F)(F)CC2)cn1 (single isomer, unassigned) [Example 27, rac-2,3-Dihydro-furo[2,3-b]pyridine-3-carboxylic acid [2-(4,4-difluoro-piperidin-1-yl)-2-(2-methyl-pyrimidin-5-yl)-ethyl]-amide] — 1.8-fold lower, 1360 nM
- Cc1ncc(C(CNC(=O)C2COc3ncccc32)N2CCC(F)(F)CC2)cn1 (single isomer, unassigned) [Example 28, rac-2,3-Dihydro-furo[2,3-b]pyridine-3-carboxylic acid [2-(4,4-difluoro-piperidin-1-yl)-2-(2-methyl-pyrimidin-5-yl)-ethyl]-amide] — 43-fold lower, 58.9 nM
- O=C(NCC(c1cnc(C(F)(F)F)nc1)N1CCOCC1)C1COc2ncccc21 (single isomer, unassigned) [Example 59, rac-2,3-Dihydro-furo[2,3-b]pyridine-3-carboxylic acid [2-morpholin-4-yl-2-(2-trifluoromethyl-pyrimidin-5-yl)-ethyl]-amide] — 7.3-fold lower, 346 nM
- O=C(NCC(c1cnc(C(F)(F)F)nc1)N1CCOCC1)C1COc2ncccc21 (single isomer, unassigned) [Example 60, rac-2,3-Dihydro-furo[2,3-b]pyridine-3-carboxylic acid [2-morpholin-4-yl-2-(2-trifluoromethyl-pyrimidin-5-yl)-ethyl]-amide] — 87-fold lower, 29 nM

Same assay, conditions: read-out: IC50 [nM], antagonistic activities with respect to the P2X7 receptor

`Cc1cc(Cl)cc(Cl)c1CNC(=O)C1COc2c1ccc[n+]2[O-]` (racemic) [Example 115, rac-7-Oxy-2,3-dihydro-furo[2,3-b]pyridine-3-carboxylic acid 2,4-dichloro-6-methyl-benzylamide] was tested, and the IC50 was 35.4 nM.

Same assay, conditions: read-out: IC50 [nM], antagonistic activities with respect to the P2X7 receptor; HEK-293 cells expressing human recombinant P2X7 receptor; YO-PRO-1 fluorescence; ATP 250 μM, 90 minutes; highest concentration 10 μM

Point of comparison: `O=C(N[C@H](CO)C1CCCCC1)C1COc2ncccc21` (single isomer, unassigned) [Example 1], IC50 1070 nM. Against it:
- O=C(N[C@H](CO)C1CCCCC1)C1COc2ncccc21 (single isomer, unassigned) [Example 2] — 10-fold lower, 106 nM
- Cc1cc(Cl)cc(Cl)c1CNC(=O)C1COc2ncccc21 (single isomer, unassigned) [Example 3, 2,3-Dihydro-furo[2,3-b]pyridine-3-carboxylic acid 2,4-dichloro-6-methyl-benzylamide] — 58-fold lower, 18.3 nM
- Cc1cc(Cl)cc(Cl)c1CNC(=O)C1COc2ncccc21 (single isomer, unassigned) [Example 4, 2,3-Dihydro-furo[2,3-b]pyridine-3-carboxylic acid 2,4-dichloro-6-methyl-benzylamide] — 370-fold lower, 2.9 nM
- O=C(N[C@H](CO)c1ccc(Cl)cc1Cl)C1COc2ncccc21 (single isomer, unassigned) [Example 6] — 1.7-fold lower, 621 nM
- O=C(N[C@H](CO)c1ccc(Cl)cc1Cl)C1COc2ncccc21 (single isomer, unassigned) [Example 7] — 9.1-fold lower, 117 nM
- Cc1cc(Cl)cc(Cl)c1CNC(=O)C1CCOc2ncccc21 (single isomer, unassigned) [Example 17, 3,4-Dihydro-2H-pyrano[2,3-b]pyridine-4-carboxylic acid 2,4-dichloro-6-methyl-benzylamide] — 820-fold lower, 1.3 nM
- Cc1cc(Cl)cc(Cl)c1CNC(=O)C1CCOc2ncccc21 (single isomer, unassigned) [Example 18, 3,4-Dihydro-2H-pyrano[2,3-b]pyridine-4-carboxylic acid 2,4-dichloro-6-methyl-benzylamide] — 670-fold lower, 1.6 nM
- O=C(NCc1c(Cl)cc(Cl)cc1CO)C1COc2ncccc21 (single isomer, unassigned) [Example 24, 2,3-Dihydro-furo[2,3-b]pyridine-3-carboxylic acid 2,4-dichloro-6-hydroxymethyl-benzylamide] — 27-fold lower, 39.4 nM
- O=C(NCc1c(Cl)cc(Cl)cc1CO)C1COc2ncccc21 (single isomer, unassigned) [Example 25, 2,3-Dihydro-furo[2,3-b]pyridine-3-carboxylic acid 2,4-dichloro-6-hydroxymethyl-benzylamide] — 400-fold lower, 2.7 nM
- O=C(NCc1c(Cl)cc(Cl)cc1Br)C1COc2ncccc21 (single isomer, unassigned) [Example 79, 2,3-Dihydro-furo[2,3-b]pyridine-3-carboxylic acid 2-bromo-4,6-dichloro-benzylamide] — 21-fold lower, 51.1 nM
